# Patent publication US10941153B2, “Substituted phenethylamine derivatives” (REGENTS OF THE UNIVERSITY OF MINNESOTA, priority 2018, dated 2021)
# What was measured:
# σ1 receptor = biological target: T1, σ1 receptor (UniProt Q99720); assay: PDSP binding affinity, sigma-1; parameters: species or system human
# T1 construct: Ki, Sigma-1; σ1 potency and selectivity, in words; other: relative to compound 4e
# Excerpt: Assay data for compound 53558 against sigma-1 receptor is presented in FIG. 21 and Tables 10 and 11 below: […]
# 5-HT2B receptor = 5-HT2B receptor (Homo sapiens, UniProt P41595); assay: PDSP GPCR binding affinity, 5-HT2B
# Excerpt: In particular, the Ki (nM) value is provided. […] FIGS. 14-15 are graphical views of Log P vs. Ki, 5-HT2B receptor and Log P vs. Ki, sigma-1 receptor, respectively, summarizing the data presented in Table 6, according to one or more embodiments of the present disclosure. Assay data for compound 53545 against 5-HT7A receptor is presented in FIG. 18 and Tables 8-9 provided below:
# Assay data for compound 53529 against 5-HT2B receptor is presented in FIG. 22 and Tables 12-13 provided below: […]
# 5-HT1A receptor = biological target: T2, 5-HT1A receptor (Homo sapiens, UniProt P08908); assay: PDSP GPCR binding affinity, 5-HT1A
# T2 sequence (P08908 1-422): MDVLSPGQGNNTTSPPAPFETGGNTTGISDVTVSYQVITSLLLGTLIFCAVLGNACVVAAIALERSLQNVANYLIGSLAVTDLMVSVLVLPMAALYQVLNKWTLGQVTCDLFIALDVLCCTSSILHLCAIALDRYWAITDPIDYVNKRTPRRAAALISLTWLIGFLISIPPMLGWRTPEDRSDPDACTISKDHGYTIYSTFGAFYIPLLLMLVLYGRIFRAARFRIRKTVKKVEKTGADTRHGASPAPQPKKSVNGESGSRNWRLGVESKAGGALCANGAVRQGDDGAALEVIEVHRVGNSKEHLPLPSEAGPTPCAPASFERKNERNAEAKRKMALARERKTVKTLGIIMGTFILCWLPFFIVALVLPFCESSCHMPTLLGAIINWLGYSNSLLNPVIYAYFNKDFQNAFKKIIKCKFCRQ
# Excerpt: (§1) In particular, the Ki (nM) value is provided. […] FIGS. 14-15 are graphical views of Log P vs. Ki, 5-HT2B receptor and Log P vs. Ki, sigma-1 receptor, respectively, summarizing the data presented in Table 6, according to one or more embodiments of the present disclosure. Assay data for compound 53545 against 5-HT7A receptor is presented in FIG. 18 and Tables 8-9 provided below: […]
# [1] = system: human GPCR (serotonin, adrenergic, dopamine, histamine, muscarinic, opioid, sigma and others); assay: PDSP broad GPCR screen; details: wider array of GCPR, Table 5
# Method: The G-Protein-coupled receptor (GPCR) binding affinity of the compounds of the present disclosure was assessed through the Psychoactive Drug Screening Program.
# An initial screen of three primary amines was submitted. […] The molecules were screened across a wide range of human GPCR including serotonin (5-HT), α- and β-adrenergic (Alpha and Beta), dopamine (D), histamine (H), muscarinic (M), opioid (OR), sigma (σ), and others (Table 1).
# 5-HT7 receptor = 5-HT7 receptor (Homo sapiens, UniProt P34969); assay: PDSP GPCR binding affinity, 5-HT7; details: for 5-HT7 potency, in words: relative to compound 4i
# Excerpt: as §1
# 5-HT7 receptor, sequence (P34969 1-445 isoform P34969-2): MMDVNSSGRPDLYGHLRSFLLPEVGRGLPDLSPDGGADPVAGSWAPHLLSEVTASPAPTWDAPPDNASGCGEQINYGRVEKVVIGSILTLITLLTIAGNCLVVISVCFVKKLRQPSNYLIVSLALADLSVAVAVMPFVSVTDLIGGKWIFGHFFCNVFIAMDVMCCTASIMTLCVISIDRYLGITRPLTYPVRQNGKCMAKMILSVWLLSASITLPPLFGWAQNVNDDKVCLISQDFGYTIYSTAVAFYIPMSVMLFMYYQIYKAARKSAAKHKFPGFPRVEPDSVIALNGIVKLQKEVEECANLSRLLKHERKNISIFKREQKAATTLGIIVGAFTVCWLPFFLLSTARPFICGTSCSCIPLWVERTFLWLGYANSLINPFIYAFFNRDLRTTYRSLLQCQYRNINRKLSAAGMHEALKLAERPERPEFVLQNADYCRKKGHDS
# 5-HT2B receptor, sequence (P41595 whole entry): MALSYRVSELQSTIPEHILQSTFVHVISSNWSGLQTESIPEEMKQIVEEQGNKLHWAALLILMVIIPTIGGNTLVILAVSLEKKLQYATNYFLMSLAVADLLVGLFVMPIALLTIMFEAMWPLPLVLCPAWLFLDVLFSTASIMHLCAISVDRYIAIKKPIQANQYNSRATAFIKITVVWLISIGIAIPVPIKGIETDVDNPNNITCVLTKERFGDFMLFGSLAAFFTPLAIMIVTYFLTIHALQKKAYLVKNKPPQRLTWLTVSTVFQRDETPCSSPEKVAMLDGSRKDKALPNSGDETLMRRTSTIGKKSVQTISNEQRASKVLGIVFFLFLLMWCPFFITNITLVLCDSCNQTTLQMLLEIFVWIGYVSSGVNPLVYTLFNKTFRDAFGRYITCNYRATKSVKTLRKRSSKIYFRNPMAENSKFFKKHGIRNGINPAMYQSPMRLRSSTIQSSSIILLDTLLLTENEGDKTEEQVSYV
molecule,measurement,setting,value
C[C@@]12COc3cc(OCc4ccccc4)ccc3[C@@H]1CCN2 [Compound 4c],"σ1 binding, in words",σ1 receptor,potent σ1 ligand
C[C@@]12COc3cc(O)ccc3[C@@H]1CCN2 [Compound 4d],"σ1 binding, in words",σ1 receptor,detrimental to activity
Cc1cc(C)c2c(c1)OC[C@@]1(C)NCC[C@@H]21 [Compound 4f],"5-HT2B binding, in words",5-HT2B receptor,enhanced 5-HT2B binding
CC12CN(c3ccccc3)c3ccccc3C1CCN2 (stereo not shown) [Compound 4i],Ki,5-HT1A receptor,> 10000 nM
same,activity across the additional GCPR investigated,[1],minimal activity
same,Ki,5-HT7 receptor,6.3 nM
same,"selectivity for 5-HT7 vs next most sensitive receptor, σ1",5-HT7 receptor,~75 fold
CN1CC[C@H]2c3ccccc3N(c3ccccc3)C[C@]21C [Compound 10c],"5-HT7 potency, in words",5-HT7 receptor,further enhanced
CC(=O)N1CC[C@H]2c3ccccc3N(c3ccccc3)C[C@]21C [Compound 11c],"5-HT7 potency, in words",5-HT7 receptor,removed activity
SB 206553 [reference compound],Ki,"5-HT2B receptor; 5-HT2B receptor, competition binding curve, SB 206553 as reference, read-out: Ki (Table 12)",9.79 nM
